Experimental data taken from the supplement of paper PMC10307832.

Tests used:
Assay in all cases: relative viability (nuclei count vs DMSO), 5 days (fraction); higher = more cells survive
Pemetrexed + Alpelisib = compound: Nc1nc2[nH]cc(CCc3ccc(C(=O)N[C@@H](CCC(=O)O)C(=O)O)cc3)c2c(=O)[nH]1 [Pemetrexed] + Cc1nc(NC(=O)N2CCC[C@H]2C(N)=O)sc1-c1ccnc(C(C)(C)C(F)(F)F)c1 [Alpelisib] (partner 2 µM)
Procedure, shortened: (§1)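 Lung cancer cell lines were pin-tool dosed in 1536-well plates on the day after seeding, with either a lone drug or a fixed anchor-drug dose plus five library-drug doses (not always all listed) in √10 steps. Nuclei were counted on 4× images after 5 days. Relative viability is the ratio of treated-well to vehicle-well nuclei counts, with each value a median of duplicate plates.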

Pemetrexed + Navitoclax = compound: Nc1nc2[nH]cc(CCc3ccc(C(=O)N[C@@H](CCC(=O)O)C(=O)O)cc3)c2c(=O)[nH]1 [Pemetrexed] + CC1(C)CCC(c2ccc(Cl)cc2)=C(CN2CCN(c3ccc(C(=O)NS(=O)(=O)c4ccc(N[C@H](CCN5CCOCC5)CSc5ccccc5)c(S(=O)(=O)C(F)(F)F)c4)cc3)CC2)C1 [Navitoclax] (partner 0.5 µM)
Procedure, shortened: as §1

Idelalisib + Vorinostat = compound: CC[C@H](Nc1ncnc2[nH]cnc12)c1nc2cccc(F)c2c(=O)n1-c1ccccc1 [Idelalisib] + O=C(CCCCCCC(=O)Nc1ccccc1)NO [Vorinostat] (partner 1 µM)
Procedure, shortened: as §1

Idelalisib + Linsitinib = compound: CC[C@H](Nc1ncnc2[nH]cnc12)c1nc2cccc(F)c2c(=O)n1-c1ccccc1 [Idelalisib] + C[C@]1(O)C[C@@H](c2nc(-c3ccc4ccc(-c5ccccc5)nc4c3)c3c(N)nccn32)C1 [Linsitinib] (partner 1 µM)
Procedure, shortened: as §1

| Cell Line | relative viability (Pemetrexed + Alpelisib; first compound 0.002 µM) | relative viability (Pemetrexed + Alpelisib; first compound 0.006325 µM) | relative viability (Pemetrexed + Alpelisib; first compound 0.02 µM) | relative viability (Pemetrexed + Alpelisib; first compound 0.06325 µM) | relative viability (Pemetrexed + Alpelisib; first compound 0.2 µM) | relative viability (Pemetrexed + Navitoclax; first compound 0.002 µM) | relative viability (Pemetrexed + Navitoclax; first compound 0.006325 µM) | relative viability (Pemetrexed + Navitoclax; first compound 0.02 µM) | relative viability (Pemetrexed + Navitoclax; first compound 0.06325 µM) | relative viability (Pemetrexed + Navitoclax; first compound 0.2 µM) | relative viability (Idelalisib + Vorinostat; first compound 0.04 µM) | relative viability (Idelalisib + Vorinostat; first compound 0.1265 µM) | relative viability (Idelalisib + Vorinostat; first compound 0.4 µM) | relative viability (Idelalisib + Vorinostat; first compound 1.265 µM) | relative viability (Idelalisib + Vorinostat; first compound 4 µM) | relative viability (Idelalisib + Linsitinib; first compound 0.04 µM) | relative viability (Idelalisib + Linsitinib; first compound 0.1265 µM) | relative viability (Idelalisib + Linsitinib; first compound 0.4 µM) | relative viability (Idelalisib + Linsitinib; first compound 1.265 µM) | relative viability (Idelalisib + Linsitinib; first compound 4 µM) |
| --- | --- | --- | --- | --- | --- | --- | --- | --- | --- | --- | --- | --- | --- | --- | --- | --- | --- | --- | --- | --- |
| HCC-15 | 0.821 | 0.847 | 0.867 | 0.666 | 0.519 | 0.701 | 0.668 | 0.702 | 0.588 | 0.482 | 0.764 | 0.865 | 0.888 | 0.889 | 0.69 | 0.909 | 0.866 | 0.857 | 0.89 | 0.873 |
| EPLC-272H | 0.876 | 0.938 | 1.11 | 0.962 | 0.847 | 1.24 | 1.05 | 1.19 | 1.12 | 1.05 | 0.422 | 0.405 | 0.431 | 0.292 | 0.452 | 1.49 | 0.996 | 0.977 | 1.13 | 0.976 |
| NCI-H2009 | 1.15 | 1.13 | 1.22 | 1.12 | 1.08 | 1.15 | 1.11 | 1.18 | 1.12 | 1.04 | 0.751 | 0.751 | 0.663 | 0.688 | 0.72 | 1.22 | 1.28 | 1.11 | 1.16 | 0.887 |
| NCI-H520 | 0.92 | 0.828 | 0.948 | 0.823 | 0.697 | 0.963 | 1.08 | 1.25 | 1.11 | 1.08 | 0.768 | 0.708 | 0.669 | 0.722 | 0.488 | 0.98 | 0.935 | 0.856 | 0.894 | 0.648 |
| NCI-H2405 | 0.896 | 0.714 | 0.868 | 0.712 | 0.736 | 1.13 | 0.882 | 0.907 | 0.778 | 0.776 | 1.2 | 1.05 | 0.908 | 1.04 | 1.06 | 1.08 | 0.851 | 0.733 | 0.736 | 0.69 |
| LCLC-97TM1 | 0.265 | 0.2 | 0.257 | 0.173 | 0.237 | 0.393 | 0.279 | 0.674 | 0.375 | 0.394 | 0.802 | 0.871 | 0.446 | 0.868 | 0.685 | 0.209 | 0.184 | – | 0.175 | 0.156 |
| NCI-H727 | 0.577 | 0.534 | 0.596 | 0.678 | 0.594 | 0.422 | 0.474 | 0.583 | 0.428 | 0.527 | 1.24 | 1.17 | 1.12 | 1.25 | 1.05 | 0.318 | 0.296 | 0.281 | 0.402 | 0.267 |
